Assay results taken from patent EP1151753B1, “PREVENTIVE AND THERAPEUTIC AGENTS FOR ARTERIOSCLEROSIS” (CCI CORPORATION, priority 1999, dated 2000).

What was measured:
[1] = Lipoprotein analysis, WHHL rabbit model; format: in vivo, WHHL type rabbits; conditions: WHHL rabbits
From the text: 1. Animal used and feeding conditions In the test, female and male WHHL type rabbits (SPF: Kitayama Labels K.K.) which were eight weeks old at the time of arrival at the laboratory were subjected to quarantine and domestication and visually inspected as to the general condition and, after the absence of abnormality was confirmed, put to use. The body weights at the time of starting administration (at the age of nine weeks) were in the range of 1.5 - 1.9 kg in the case of male rabbits and in the range of 1.4 - 1.8 kg in the case of female rabbits. Throughout the entire duration of the test, the animals were raised as accommodated one each in hanger cages of aluminum installed on a stainless steel rack inside a clean feeding chamber set at a temperature in the range of 20 - 26°, a relative humidity in the range of 40 - 70%, a number of ventilations in the range of 10 - 20 turns/hour, and an illumination time within the range of 12 hours (7.00 - 19:00). They were fed on a commercially available radioactively sterilized solid feed (made by Oriental Kobo K.K. and sold under the product code of "RC4") and they were left freely drinking the tap water delivered by an automatic water supplying device. 2. Setting dosage and method of administration The dosage of TMG was set at 800 mg/head/day. The TMG was solved in reagent grade ethanol. The produced solution was sprayed on the feed and the wet feed was left drying in the air. A mixed feed was prepared so as to contain 800 mg of TMG per 100 g of the feed. The mixed feed was given to the rabbits every morning at a rate of 100 g/day per head for 27 weeks for the sake of attaining oral consumption of the TMG. The feed for the control group was obtained by spraying ethanol alone on a feed and air-drying the wet feed. It was given to the rabbits of the control group at a rate of 100 g/day per head for 27 weeks. 3. […] The blood was centrifuged to separate blood serum and the blood serum was analyzed for the items shown in Table 5 by the use of an automatic analyzer (made by Hitachi. Ltd. and sold under the product code of "736-20"). The body weight of each rabbit was measured at the rate of once a week throughout the entire duration of the administration.
5. […] The blood serum was ultracentrifuged by Hatch and Lees method (Hatch, F. T., and Lees, R. S. (1968) Advan, Lipid Res. 6, 1-68) using a centrifuge (the rotor; Beckman 70.1 Ti) made by Beckman and sold under the product code of "L-70") to separate low specific gravity lipoprotein (1.006 < d < 1.063), with the cholesterol amount of the LDL fraction determined by the cholesterol oxidase DASO method and the amount of HDL-cholesterol determined by subjecting the blood serum to the phospho-tungstic acid magnesium salt precipitation method. […]

[2] = Lipoprotein analysis, cholesterol-loaded rabbit model; format: in vivo, New Zealand White (NZW) type rabbits; conditions: cholesterol-loaded NZW rabbits
From the text: In the test, female and male New Zealand White (NZW) type rabbits (SPF: Kitayama Labels K.K.) which were seven weeks old at the time of arrival at the laboratory were subjected to quarantine and two weeks' domestication and visually inspected as to the general condition and, after the absence of abnormality was confirmed, put to use. The body weights at the time of starting administration (at the age of nine weeks) were in the range of 1.8 - 2.2 kg in the case of male rabbits and in the range of 1.6 - 2.0 kg in the case of female rabbits. Throughout the entire duration of the test, the animals were raised as accommodated one each in hanger cages of aluminum installed on a stainless steel rack inside a clean feeding chamber set at a temperature in the range of 20 - 26°, a relative humidity in the range of 40 - 70%, a number of ventilations in the range of 10 - 20 turns/hour, and an illumination time within the range of 12 hours (7.00 - 19:00). They were fed on a commercially available radioactively sterilized solid feed (a product containing 1% of cholesterol, made by Oriental Kobo K.K. and sold under the product code of "RC4") and they were left freely drinking the tap water delivered by an automatic water supplying device.
The dosage of TMG was set at 800 mg/head/day. The TMG was solved in reagent grade ethanol. The produced solution was sprayed on the 1% cholesterol-containing feed and the wet feed was left drying in the air. A mixed feed was prepared so as to contain 800 mg of TMG per 100 g of the feed. The mixed feed was given to the rabbits every morning at a rate of 100 g/day per head for 12 weeks for the sake of attaining oral consumption of the TMG. The feed for the control group was obtained by spraying ethanol alone on a feed containing 1% cholesterol and air-drying the wet feed. It was given to the rabbits of the control group at a rate of 100 g/day per heat for 12 weeks. […]
About 10 ml of blood was taken from the heart or the auricular artery of a rabbit experiencing 12 hours' fast prior to the start of the administration and on the 6th and 12th weeks of administration. […] The blood serum was ultracentrifuged by Hatch and Lees method (Hatch, F. T., and Lees, R. S. (1968) Advan, Lipid Res. 6, 1-68) using a centrifuge (the rotor; Beckman 70.1 Ti) made by Beckman and sold under the product code of "L-70") to separate low specific gravity lipoprotein (1.006 < d < 1.063), with the cholesterol amount of the LDL fraction determined by the cholesterol oxidase DASO method and the amount of HDL-cholesterol determined by subjecting the blood serum to the phospho-tungstic acid magnesium salt precipitation method. The amount of TMG was determined by the HPLC method.

[3] = TMG 800 mg/head/day in feed, 26th week of administration, average ± SE
[4] = TMG 800 mg/head/day in feed, 12th week of administration, average ± SE

In the case of `Cc1c(C)c2c(c(C)c1O)CCC(C)(C[C@H]1O[C@H](CO)[C@@H](O)[C@H](O)[C@H]1O)O2` (stereo partly drawn) [TMG, 2-(α-D-glucopyranosyl)methyl-2,5,7,8-tetramethyl chroman-6-ol], the “activity of lowering the HDL-cholesterol” value ([1]; TMG 800 mg/head/day for 27 weeks) is reported as “no activity”, the HDL-CHO [1, 3] is reported as 5 ± 1 mg/dL and the LDL-CHO [1, 3] is reported as 746 ± 29 mg/dL. The LDL-TMG ([1]; amount of TMG in LDL fraction by HPLC, TMG 800 mg/head/day in feed, 26th week of administration) was “not detected”, the LDL-TMG ([2]; amount of TMG in LDL fraction by HPLC, TMG 800 mg/head/day in feed, 12th week of administration) was “not detected” and the “activity of lowering the HDL-cholesterol” value ([2]; TMG 800 mg/head/day for 12 weeks) was “no activity”. It also gave an HDL-CHO [2, 4] of 33 ± 5 mg/dL and an LDL-CHO [2, 4] of 620 ± 34 mg/dL.
